Experiments:
rgRSV224 virus = assay: Antiviral activity: rgRSV224 (GFP-expressing RSV) replication in HeLa cells, GFP expression measured three days post-virus exposure; format: cell-based; settings: human respiratory syncytial virus, 72 h, read-out: WT activity pEC50 (converted)
Protocol: (§1) Black 96-well clear-bottom microtiter plates (Corning, Amsterdam, The Netherlands) were filled in duplicate using a customized robot system with serial 4-fold dilutions of compound in a final volume of 50 μl culture medium [RPMI medium without phenol red, 10% FBS, 0.04% gentamycin (50 mg/ml) and 0.5% DMSO]. Then, 100 μl of a HeLa cell suspension (5×10^4 cells/ml) in culture medium was added to each well followed by the addition of 50 μl rgRSV224 (MOI=0.02) virus in culture medium using a multidrop dispenser (Thermo Scientific, Erembodegem, Belgium). rgRSV224 virus is an engineered virus that includes an additional GFP gene (Hallak et al, 2000) and was in-licensed from the NIH (Bethesda, Md., USA). Medium, virus- and mock-infected controls were included in each test. Cells were incubated at 37° C. in a 5% CO2 atmosphere. Three days post-virus exposure, viral replication was quantified by measuring GFP expression in the cells by a MSM laser microscope (Tibotec, Beerse, Belgium). The EC50 was defined as the 50% inhibitory concentration for GFP expression. In parallel, compounds were incubated for three days in a set of white 96-well microtitier plates (Corning) and the cytotoxicity of compounds in HeLa cells was determined by measuring the ATP content of the cells using the ATPlite kit (PerkinElmer, Zaventem, Belgium) according to the manufacturer's instructions. The CC50 was defined as the 50% concentration for cytotoxicity.

in vitro = format: cell-based; settings: human
Protocol: as §1

| SMILES | melting point | EC50 (rgRSV224 virus) | CC50 at 3 days (in vitro) |
| --- | --- | --- | --- |
| CC(C)(C)OC(=O)N1CC(n2c(=O)n(Cc3cc4cc(Cl)ccc4n3CCCS(C)(=O)=O)c3cnccc32)C1 [Compound P1, tert-butyl-3-(3-((5-chloro-1-(3-(methylsulfonyl)propyl)-1H-indol-2-yl)methyl)-2-oxo-2,3-dihydro-1H-imidazo[4,5-c]pyridin-1-yl)azetidine-1-carboxylate] | 195 °C | 5.01 nM | 50.1 µM |
| O=c1n(Cc2nc3nc(Cl)ccc3n2CCCCF)c2cnccc2n1-c1nccs1 | 238 °C | – | – |
| CC(C)(C)OC(=O)N1CC(n2c(=O)n(Cc3cc4cc(Cl)ccc4n3CCCS(C)(=O)=O)c3cc(F)ccc32)C1 [Compound P2, tert-butyl 3-(3-((5-chloro-1-(3-(methylsulfonyl)propyl)-1H-indol-2-yl)methyl)-5-fluoro-2-oxo-2,3-dihydro-1H-benzo[d]imidazol-1-yl)azetidine-1-carboxylate] | 185 °C | 12.6 nM | 10 µM |
| CC(C)CCn1c(Cn2c(=O)n(-c3nccs3)c3ccncc32)nc2nc(Cl)ccc21 [Compound P22, 3-((5-chloro-1-isopentyl-1H-imidazo[4,5-b]pyridin-2-yl)methyl)-1-(thiazol-2-yl)-1H-imidazo[4,5-c]pyridin-2(3H)-one] | 231.23 °C | 3.98 nM | 25.1 µM |
| N#CCCCn1c(Cn2c(=O)n(-c3ccc(Cl)cc3)c3ccncc32)cc2cc(Cl)ccc21 [Compound P39, 4-(5-chloro-2-((1-(4-chlorophenyl)-2-oxo-1H-imidazo[4,5-c]pyridin-3(2H)-yl)methyl)-1H-indol-1-yl)butanenitrile] | 210.8 °C | 3.98 nM | 25.1 µM |
| CC(C)CCn1c(Cn2c(=O)n(-c3nccs3)c3ccc(F)cc32)nc2nc(Cl)ccc21 [Compound P25, 3-((5-chloro-1-isopentyl-1H-imidazo[4,5-b]pyridin-2-yl)methyl)-5-fluoro-1-(thiazol-2-yl)-1H-benzo[d]imidazol-2(3H)-one] | 264.42 °C | 15.8 nM | > 50.1 µM |
| O=c1n(Cc2cc3cc(Cl)ccc3n2CCCCF)c2cnccc2n1-c1nccs1 [Compound P11, 3-((5-chloro-1-(4-fluorobutyl)-1H-indol-2-yl)methyl)-1-(thiazol-2-yl)-1H-imidazo[4,5-c]pyridin-2(3H)-one] | 240 °C | 12.6 nM | > 25.1 µM |
| COc1ccc(-n2c(=O)n(Cc3cc4cc(Cl)ccc4n3CCCCF)c3cnccc32)cc1 [Compound P32, 3-((5-chloro-1-(4-fluorobutyl)-1H-indol-2-yl)methyl)-1-(4-methoxy-phenyl)-1H-imidazo[4,5-c]pyridin-2(3H)-one] | 163 °C | 3.98 nM | 79.4 µM |
| COc1ccc(-n2c(=O)n(Cc3cc4cc(Cl)ccc4n3CCCC#N)c3cnccc32)cc1OC [Compound P19, 4-(5-chloro-2-((1-(3,4-dimethoxyphenyl)-2-oxo-1H-imidazo[4,5-c]pyridin-3(2H)-yl)methyl)-1H-indol-1-yl)butanenitrile] | 176.51 °C | 0.126 nM | > 100 µM |
| N#CCCCn1c(Cn2c(=O)n(-c3ccncn3)c3ccncc32)cc2cc(Cl)ccc21 [Compound P24, 4-(5-chloro-2-((2-oxo-1-(pyrimidin-4-yl)-1H-imidazo[4,5-c]pyridin-3(2H)-yl)methyl)-1H-indol-1-yl)butanenitrile] | 229.17 °C | 10 nM | > 50.1 µM |
| CC(C)(C)n1c(=O)n(Cc2cc3cc(Cl)ccc3n2CCCS(C)(=O)=O)c2cnccc21 [Compound P8, 1-tert-butyl-3-((5-chloro-1-(3-(methylsulfonyl)propyl)-1H-indol-2-yl)methyl)-1H-imidazo[4,5-c]pyridin-2(3H)-one] | 226 °C | 2.51 nM | 39.8 µM |
| CC(=O)N1CC(n2c(=O)n(Cc3cc4cc(Cl)ccc4n3CCCS(C)(=O)=O)c3cnccc32)C1 [Compound P6, 1-(1-acetylazetidin-3-yl)-3-((5-chloro-1-(3-(methylsulfonyl)propyl)-1H-indol-2-yl)methyl)-1H-imidazo[4,5-c]pyridin-2(3H)-one] | 252 °C | 3.98 nM | > 25.1 µM |
| N#CCCCn1c(Cn2c(=O)n(-c3nccs3)c3ccc(F)cc32)cc2cc(Cl)ccc21 [Compound P27, 4-(5-chloro-2-((6-fluoro-2-oxo-3-(thiazol-2-yl)-2,3-dihydro-1H-benzo[d]imidazol-1-yl)methyl)-1H-indol-1-yl)butanenitrile] | 238.29 °C | 31.6 nM | > 100 µM |
| CC(C)CCn1c(Cn2c(=O)n(-c3ccncc3F)c3ccncc32)nc2nc(Cl)ccc21 [Compound P26, 3-((5-chloro-1-isopentyl-1H-imidazo[4,5-b]pyridin-2-yl)methyl)-1-(3-fluoropyridin-4-yl)-1H-imidazo[4,5-c]pyridin-2(3H)-one] | 123.79 °C | 25.1 nM | > 100 µM |
| CC(C)CCn1c(Cn2c(=O)n(C3(C)CC3)c3ccncc32)nc2nc(Cl)ccc21 [Compound P18, 3-((5-chloro-1-isopentyl-1H-imidazo[4,5-b]pyridin-2-yl)methyl)-1-(1-methylcyclopropyl)-1H-imidazo[4,5-c]pyridin-2(3H)-one] | – | 2 nM | > 100 µM |
| N#CCCCn1c(Cn2c(=O)n(-c3ccncc3F)c3ccncc32)cc2cc(Cl)ccc21 [Compound P42, 4-(5-chloro-2-((1-(3-fluoropyridin-4-yl)-2-oxo-1H-imidazo[4,5-c]pyridin-3(2H)-yl)methyl)-1H-indol-1-yl)butanenitrile] | – | 0.316 nM | > 100 µM |
| Cn1ccc(-n2c(=O)n(Cc3cc4cc(Cl)ccc4n3CCCCF)c3cnccc32)n1 [Compound P38, 3-((5-chloro-1-(4-fluorobutyl)-1H-indol-2-yl)methyl)-1-(1-methyl-1H-pyrazol-3-yl)-1H-imidazo[4,5-c]pyridin-2(3H)-one] | 169.3 °C | 1.58 nM | > 100 µM |
| COc1ccc(-n2c(=O)n(Cc3cc4cc(Cl)ccc4n3CCCC#N)c3cnccc32)cc1F [Compound P15, 4-(5-chloro-2-((1-(3-fluoro-4-methoxyphenyl)-2-oxo-1H-imidazo[4,5-c]pyridin-3(2H)-yl)methyl)-1H-indol-1-yl)butanenitrile] | – | 1 nM | > 100 µM |
| COc1ccc(-n2c(=O)n(Cc3cc4cc(Cl)ccc4n3CCCS(C)(=O)=O)c3cnccc32)cc1 [Compound P35, 3-((5-chloro-1-(3-(methylsulfonyl)propyl)-1H-indol-2-yl)methyl)-1-(4-methoxyphenyl)-1H-imidazo[4,5-c]pyridin-2(3H)-one] | 215 °C | 0.316 nM | 31.6 µM |
| COc1ccc(-n2c(=O)n(Cc3cc4cc(Cl)ccc4n3CCCC#N)c3cnccc32)cc1 [Compound P14, 4-(5-chloro-2-((1-(4-methoxyphenyl)-2-oxo-1H-imidazo[4,5-c]pyridin-3(2H)-yl)methyl)-1H-indol-1-yl)butanenitrile] | – | 0.398 nM | 12.6 µM |
| CC1(n2c(=O)n(Cc3cc4cc(Cl)ccc4n3CCCS(C)(=O)=O)c3cnccc32)CC1 [Compound P7, 3-((5-chloro-1-(3-(methylsulfonyl)propyl)-1H-indol-2-yl)methyl)-1-(1-methylcyclopropyl)-1H-imidazo[4,5-c]pyridin-2(3H)-one] | – | 0.501 nM | 50.1 µM |
| CS(=O)(=O)CCCn1c(Cn2c(=O)n(C3CNC3)c3ccncc32)cc2cc(Cl)ccc21 [Compound P4, 1-(azetidin-3-yl)-3-((5-chloro-1-(3-(methylsulfonyl)propyl)-1H-indol-2-yl)methyl)-1H-imidazo[4,5-c]pyridin-2(3H)-one] | – | 31.6 nM | > 100 µM |
| Cn1ccnc1-n1c(=O)n(Cc2cc3cc(Cl)ccc3n2CCCC#N)c2cnccc21 [Compound P33, 4-(5-chloro-2-((1-(1-methyl-1H-imidazol-2-yl)-2-oxo-1H-imidazo[4,5-c]pyridin-3(2H)-yl)methyl)-1H-indol-1-yl)butanenitrile] | – | 10 nM | > 100 µM |
| COC(=O)c1ccc(-n2c(=O)n(Cc3cc4cc(Cl)ccc4n3CCCC#N)c3cnccc32)cc1 [Compound P51, methyl 4-(3-((5-chloro-1-(3-cyanopropyl)-1H-indol-2-yl)methyl)-2-oxo-2,3-dihydro-1H-imidazo[4,5-c]pyridin-1-yl)benzoate] | – | 0.794 nM | 39.8 µM |
| CS(=O)(=O)CCCn1c(Cn2c(=O)n(-c3ccc(Cl)cc3)c3ccncc32)cc2cc(Cl)ccc21 [Compound P30, 3-((5-chloro-1-(3-(methylsulfonyl)propyl)-1H-indol-2-yl)methyl)-1-(4-chlorophenyl)-1H-imidazo[4,5-c]pyridin-2(3H)-one] | – | 1.58 nM | > 100 µM |

Reference: patent US9845321B2, “1,3-dihydro-2H-benzimidazol-2-one derivatives substituted with heterocycles as respiratory syncytial virus antiviral agents” (JANSSEN SCIENCES IRELAND UC, priority 2012, dated 2017)
